For assay [1], the system named is Mus musculus. The assay can be described thus: Antinociceptive activity in mouse assessed as inhibition of acetic acid-induced abdominal constrictions at 100 umol/kg, po relative to untreated control. The note with it: Abdomen. Format: functional.
The subject of assay [2] is Mus musculus. The assay can be described thus: Antinociceptive activity in po dosed mouse assessed as inhibition of acetic acid-induced abdominal constrictions. The assay is classed as functional. The note with it: Abdomen.

For `COc1ccc(C(=O)N/N=C/c2ccccc2)cc1`, the inhibition in vivo (in general, the change of the read-out against control, counted positive when it falls) at 100 µmol/kg with Mus musculus [1] turned out to be 54%. In addition, the ED50 (usually the dose at which the effect has come halfway, by size or by number of responders) in the assay with Mus musculus [2] was 9.2 µmol/kg.

On to `COc1ccc2c(c1)CC(c1ccccc1)=NNC2=O`, for which the inhibition in vivo at 100 µmol/kg with Mus musculus [1] stood at 36%. Turning to `COc1ccc(-c2nnc3ccc(-c4ccccc4)nn23)cc1`, the inhibition in vivo at 100 µmol/kg in the assay with Mus musculus [1] stood at 22%. For `COc1ccc2c(c1)c(CC(=O)O)c(C)n2C(=O)c1ccc(Cl)cc1` [INDOMETHACIN], the inhibition in vivo at 100 µmol/kg in the assay with Mus musculus [1] is 42%. Further, the ED50 in the assay on Mus musculus [2] was 56.2 µmol/kg. In the case of `COc1ccc(C(=O)N(C)/N=C/c2ccccc2)cc1`, the inhibition in vivo at 100 µmol/kg in the assay with Mus musculus [1] worked out at 50%. Also, in the assay with Mus musculus [2], the ED50 was 5.9 µmol/kg.

On to `CC(=O)Nc1ccc(O)cc1` [ACETAMINOPHEN], for which the inhibition in vivo at 100 µmol/kg in the assay on Mus musculus [1] amounted to 36%. `COC1=CC2N=CN=C(N/N=C/c3ccccc3)C2C=C1` (centres undefined): the inhibition in vivo at 100 µmol/kg in the assay with Mus musculus [1] was found to be 28%. Regarding `COc1ccc2c(=O)n(/N=C/c3ccccc3)cnc2c1`, the inhibition in vivo at 100 µmol/kg in the assay on Mus musculus [1] turned out to be 48%. Also, the ED50 with Mus musculus [2] amounted to 4.2 µmol/kg. As to `COc1ccc(C(=O)n2nc(-c3ccccc3)cc2C)cc1`, in the assay on Mus musculus [1], the inhibition in vivo at 100 µmol/kg worked out at 50%. Further, the ED50 with Mus musculus [2] was found to be 5.1 µmol/kg.

The values above are taken from ChEMBL document CHEMBL1155342, “Design, synthesis and analgesic properties of novel conformationally-restricted N-acylhydrazones (NAH)” (2009).
